Test results taken from the OligoGym collection.
After the bases stand the sugars from the 5' end (letter, count) and the backbone: PS all phosphorothioate, else s phosphorothioate and o phosphodiester by linkage. Methylation of C is not given here. e = 2'-O-(2-methoxyethyl) (MOE); k = constrained ethyl (cEt); d = 2'-deoxy (DNA); m = 2'-O-methyl

Molecular target: HSD17B13
Settings: ASO, HepaRG

Sequence	target mRNA inhibition (1 µM) [%]	further results
AGCTAAGTATACTTTC (sugars k3 d10 k3, PS)	18	–
GCTAGTGCCAAACCAA (sugars k3 d10 k3, PS)	70	target mRNA inhibition (0.02 µM): 0%; target mRNA inhibition (0.078 µM): 8%; target mRNA inhibition (0.313 µM): 39%; target mRNA inhibition (1.25 µM): 65%; target mRNA inhibition (5 µM): 87%
TGTTAACCTGCAGCAG (sugars k3 d10 k3, PS)	39	–
ATGTAGTGTTTACAAG (sugars k3 d10 k3, PS)	58	–
CTTGACAATGGTTGAT (sugars k3 d10 k3, PS)	54	–
GCATTGAAAAGATGTA (sugars k3 d10 k3, PS)	0	–
GAGGATAGTCCATGCA (sugars k3 d10 k3, PS)	59	–
ACCACGATTGTTACAT (sugars k3 d10 k3, PS)	34	–
CTACAGAGGAGTTTGC (sugars k3 d10 k3, PS)	27	–
TAGTATTTGGGTGTTC (sugars k3 d10 k3, PS)	27	–
AACAUCTCTGGGACCA (sugars k3 d1 m1 d8 k3, PS)	64	–
AAGTTAATAGGACTAA (sugars k3 d10 k3, PS)	17	–
TGTGATTGAGTTCTCC (sugars kkdddddddddkekek, PS)	11	–
TCTTAAACCTTCCCTG (sugars kkdddddddddkekek, PS)	24	–
ATATACAGACTAAGGG (sugars k3 d10 k3, PS)	24	–
AAAAAATTGGTTTCGA (sugars k3 d10 k3, PS)	20	–
GCAGTTATTAGAAGTC (sugars kkdddddddddkekek, PS)	68	–
TTGATATACGATGGAA (sugars k3 d10 k3, PS)	38	–
GCTACTTGAACAGTCT (sugars k3 d10 k3, PS)	66	–
TGTCTCCAATACAGGC (sugars k3 d10 k3, PS)	39	–
GTTACATTACAGCCTT (sugars k3 d10 k3, PS)	71	target mRNA inhibition (0.02 µM): 0%; target mRNA inhibition (0.078 µM): 18%; target mRNA inhibition (0.313 µM): 50%; target mRNA inhibition (1.25 µM): 73%; target mRNA inhibition (5 µM): 86%
CAGTCCTTGTGTAGTC (sugars k3 d10 k3, PS)	70	target mRNA inhibition (0.02 µM): 18%; target mRNA inhibition (0.078 µM): 21%; target mRNA inhibition (0.313 µM): 49%; target mRNA inhibition (1.25 µM): 79%; target mRNA inhibition (5 µM): 95%
TCTTGGGTCCATTGTT (sugars k3 d10 k3, PS)	60	–

Sequence	target mRNA inhibition (1 µM) [%]	further results
AATAGAGTCGGTCACC (sugars kkdddddddddkekek, PS)	13	–
TTAGUTAGAATAGTCT (sugars k3 d1 m1 d8 k3, PS)	35	–
ACACUAATATTGAGGC (sugars k3 d1 m1 d8 k3, PS)	43	–
ATCCCCTAAGTTATTA (sugars k3 d10 k3, PS)	13	–
ACCAGAATCCATTCTA (sugars k3 d10 k3, PS)	60	–
AGATTTACTTCCTTGT (sugars k3 d10 k3, PS)	41	–
TAGGATGATGTTCATG (sugars k3 d10 k3, PS)	72	–
TCTAAACATCTCTGGG (sugars k3 d1 m1 d8 k3, PS)	36	–
GTAACGGTGATCAAAT (sugars kkdddddddddkekek, PS)	34	–
TACTTGAACAGTCTTA (sugars k3 d9 k3 e1, PS)	65	–
CAGTCTTAAACCTTCC (sugars kkdddddddddkekek, PS)	51	–
TTTTTGGACAAATGCC (sugars k3 d10 k3, PS)	50	–
AAGGACTTTCATAGGG (sugars k3 d10 k3, PS)	71	–
CTGCTAGTGCCAAACC (sugars k3 d10 k3, PS)	74	–
ATCTCACAAGGGAAAT (sugars k3 d10 k3, PS)	73	–
TGGTGGACTTCAGAGT (sugars k3 d10 k3, PS)	17	–
GCTTTTGTCCACCTTT (sugars kkdddddddddkekek, PS)	75	target mRNA inhibition (0.02 µM): 28%; target mRNA inhibition (0.078 µM): 25%; target mRNA inhibition (0.313 µM): 45%; target mRNA inhibition (1.25 µM): 81%; target mRNA inhibition (5 µM): 87%
GTTCAACTGAACCTCT (sugars k3 d10 k3, PS)	55	–
TCTAAACTAGTGGTAA (sugars k3 d10 k3, PS)	24	–
TTGCTGGAACAATATG (sugars k3 d10 k3, PS)	20	–
TATCAGAAACTTATAC (sugars k3 d10 k3, PS)	0	–
ATAACTACAAGAGGTT (sugars k3 d1 m1 d8 k3, PS)	61	–
TACTGTCCCAGCATTA (sugars k3 d10 k3, PS)	21	–

Sequence	target mRNA inhibition (1 µM) [%]	further results
AGATTAGTCTTGATGT (sugars k3 d10 k3, PS)	63	–
ATCTAACTAACCTGAC (sugars k3 d10 k3, PS)	0	–
CCATAAAGCTGGATTG (sugars k3 d10 k3, PS)	40	–
CACATAGCTAACTCAG (sugars k3 d10 k3, PS)	42	–
GATATTCTGTGGCATG (sugars k3 d9 k3 e1, PS)	71	target mRNA inhibition (0.02 µM): 8%; target mRNA inhibition (0.078 µM): 0%; target mRNA inhibition (0.313 µM): 43%; target mRNA inhibition (1.25 µM): 65%; target mRNA inhibition (5 µM): 80%
TTGAGTTCTCCACTGC (sugars k3 d1 m1 d8 k3, PS)	18	–
CATATTCCCTGATGAT (sugars k3 d10 k3, PS)	14	–
GCAAAGATCTGGCCAG (sugars k3 d10 k3, PS)	22	–
TCTTGACAATGGTTGA (sugars kkdddddddddkekek, PS)	40	–
TAAAATAGAGTCGGTC (sugars k3 d10 k3, PS)	81	target mRNA inhibition (0.02 µM): 1%; target mRNA inhibition (0.078 µM): 9%; target mRNA inhibition (0.313 µM): 47%; target mRNA inhibition (1.25 µM): 80%; target mRNA inhibition (5 µM): 90%
CCAATATAATCCAAAG (sugars k3 d10 k3, PS)	28	–
AGTTGCACCGTTTTGG (sugars k3 d1 m1 d8 k3, PS)	38	–
GAGATAAAGCTGCCTG (sugars k3 d9 k3 e1, PS)	55	–
AATGTCCTAGGATGTT (sugars k3 d10 k3, PS)	70	–
TGAAGTTAGTATAGTT (sugars k3 d9 k3 e1, PS)	70	–
TCCATAATAATAGCTC (sugars kkdddddddddkekek, PS)	41	–
GGCTAAACCCTGGAGC (sugars k3 d10 k3, PS)	36	–
TTCTCTTGGGTCCATT (sugars k3 d10 k3, PS)	44	–
ACATAACTACTTCAGT (sugars k3 d10 k3, PS)	28	–
GTTGAGATAAAGCTGC (sugars k3 d9 k3 e1, PS)	59	–
TGGTAACGGTGATCAA (sugars k3 d10 k3, PS)	74	target mRNA inhibition (0.02 µM): 14%; target mRNA inhibition (0.078 µM): 28%; target mRNA inhibition (0.313 µM): 58%; target mRNA inhibition (1.25 µM): 76%; target mRNA inhibition (5 µM): 88%
AAACATCTCTGGGACC (sugars k3 d1 m1 d8 k3, PS)	66	–
TTTAGTCAGGTAGAGT (sugars k3 d10 k3, PS)	30	–

Sequence	target mRNA inhibition (1 µM) [%]	further results
ATCTUAAGATACCCAG (sugars k3 d1 m1 d8 k3, PS)	55	–
CTGCGCACATATTTTA (sugars k3 d10 k3, PS)	92	target mRNA inhibition (0.02 µM): 0%; target mRNA inhibition (0.078 µM): 0%; target mRNA inhibition (0.313 µM): 7%; target mRNA inhibition (1.25 µM): 52%; target mRNA inhibition (5 µM): 74%
TGGAATGCTACTTGAA (sugars kkdddddddddkekek, PS)	68	–
GAATGCTACTTGAACA (sugars k3 d9 k3 e1, PS)	56	–
ACAATCTCCCCAGCCA (sugars k3 d10 k3, PS)	67	–
ATAGAGTCGGTCACCT (sugars k3 d9 k3 e1, PS)	67	–
TTGAGATAAAGCTGCC (sugars kkkdddddkdddkkke, PS)	43	–
TGAGAAGATCGGCTGG (sugars k3 d10 k3, PS)	37	–
GAGTTATTGTAGGGAT (sugars k3 d10 k3, PS)	69	–
TGATTCGAAACTATTC (sugars k3 d10 k3, PS)	29	–
TAATTTTCAGATCCCG (sugars k3 d10 k3, PS)	75	target mRNA inhibition (0.02 µM): 0%; target mRNA inhibition (0.078 µM): 9%; target mRNA inhibition (0.313 µM): 41%; target mRNA inhibition (1.25 µM): 62%; target mRNA inhibition (5 µM): 89%
GCTGCTAGTGCCAAAC (sugars k3 d1 m1 d8 k3, PS)	39	–
AGAACCAGGACTCTCC (sugars k3 d10 k3, PS)	67	–
AAAAATTGGTTTCGAA (sugars k3 d10 k3, PS)	13	–
TTGGAATGCTACTTGA (sugars k3 d10 k3, PS)	72	target mRNA inhibition (0.02 µM): 20%; target mRNA inhibition (0.078 µM): 33%; target mRNA inhibition (0.313 µM): 47%; target mRNA inhibition (1.25 µM): 80%; target mRNA inhibition (5 µM): 83%
TCTTATTGGTAAGTAT (sugars k3 d10 k3, PS)	25	–
CAGACTAAGGGACCAG (sugars k3 d10 k3, PS)	75	target mRNA inhibition (0.02 µM): 23%; target mRNA inhibition (0.078 µM): 24%; target mRNA inhibition (0.313 µM): 63%; target mRNA inhibition (1.25 µM): 76%; target mRNA inhibition (5 µM): 89%
TAAGAGGCATGAAAGG (sugars k3 d1 m1 d8 k3, PS)	50	–
ATCAGACTTCTTACGA (sugars k3 d10 k3, PS)	45	–
GATTTAGTTGGTAGCT (sugars k3 d10 k3, PS)	63	–
ATAAGTAGATGGTAAG (sugars k3 d10 k3, PS)	58	–
